Experiment [1] deals with T1, YAP-WW1 (first WW domain of human YAP, residues 165–209) (Homo sapiens, UniProt P46937).
T1 construct: residues 165–209 for the first WW domain of human YAP (YAP-WW1); poly-histidine (N, cleaved yes); GST (N, cleaved yes); made in house; host or cells: E. coli BL21 (DE3)
As to the kind of experiment: Isothermal titration calorimetry of peptide ligands with isolated YAP-WW1. It is filed as binding. To be noted: ITC, 25°C; for n (number of binding sites) / Kd: 40 mM sodium phosphate pH 7.0 (10 mM β-mercaptoethanol for LATS2), one set of identical sites model, at least two experiments; for n (number of binding sites): variability about 1%; for Kd: variability about 10%; for -T·ΔSap / ΔGap / ΔHap: pH 7.0, one set of sites model; for ΔHap: variability about 5%. Here is the method: (§1) ITC experiments were carried out using a high-precision VP-ITC titration calorimeter (Microcal Inc., Northampton, Massachusetts). The WW domains were extensively dialyzed against 40 mM sodium phosphate buffer, pH 7.0, with the exception of those experiments using the LATS2 ligand, (containing a cysteine residue), for which the dialysis was performed in the presence of 10mM β-mercaptoethanol to reduce intermolecular di-sulphide bonds formed during ligand storage. Protein and peptide solutions, ranging from 20 to 40 μM for the proteins and from 0.8 to 2 mM for the ligands, were properly degassed to avoid bubble formation and equilibrated to 25°C prior to the titration experiment. In all cases, a profile of injection volumes from 3 to 20 μl was used to better define the titration curve. The heat evolved after each peptide injection was obtained from the integral of the calorimetric signal. The heat associated with the binding process was obtained as the difference between the heat of reaction and the corresponding heat of dilution, as obtained from independent titrations of the peptides into the buffer.
(§2) For the individual WW domains and those ligands with similar binding affinities for YAP-WW1 and YAP-WW2 domains (LATS1-a and LATS2), the resulting binding isotherms were analyzed by non-linear least-squares fittings to a model corresponding to a single set of identical sites, according to the equation:
(§3) Q=V0ΔH/2Ka[1+Ka[Lt]+nKa[Mt]+(1+Ka[Lt]+nKa[Mt])^2−4nKa2[Mt][Lt]] (equation 2)
(§4) , where Q is the net heat of binding, n is the number of binding sites, ΔH is the change in the enthalpy due to the binding process, Ka is the association constant, V0 is the active cell volume, and [Mt] and [Lt] are the total concentrations of macromolecule and the ligand, respectively.
(§5) Both models were implemented in Origin 7.0 software (OriginLab Corporation, Northampton, MA). For the least-squares fit using the one set of sites model, the number of binding sites, the association constant, and the binding enthalpy were considered as floating parameters, while in the analysis with the two set of sites model, only the two association constants and the two binding enthalpies were left to float. All experiments were performed at least twice. Typically, the variability of the experimental values was estimated to be about 1% in the number of binding sites, 5% in the binding enthalpy and 10% in the binding affinity.

The target in experiment [2] is T2, YAP-WW2 (second WW domain of human YAP, residues 228–271) (Homo sapiens, UniProt P46937).
T2 construct: residues 228–271 for the second WW domain (YAP-WW2); poly-histidine (N, cleaved yes); GST (N, cleaved yes); made in house; host or cells: E. coli BL21 (DE3)
As to the kind of experiment: Isothermal titration calorimetry of peptide ligands with isolated YAP-WW2. It is filed as binding. Particulars: ITC, 25°C; for n (number of binding sites) / Kd: 40 mM sodium phosphate pH 7.0 (10 mM β-mercaptoethanol for LATS2), one set of identical sites model, at least two experiments; for n (number of binding sites): variability about 1%; for Kd: variability about 10%, n.b. = no binding detected; for -T·ΔSap / ΔGap / ΔHap: pH 7.0, one set of sites model; for ΔHap: variability about 5%. Here is the method: as §1, §2, §3, §4, §5

Experiment [3] has as its target T3, YAP-WW1-WW2 tandem construct (human YAP residues 165–271) (Homo sapiens, UniProt P46937).
T3 construct: residues 165–271 for tandem construct (YAP-WW1-WW2); poly-histidine (N, cleaved yes); GST (N, cleaved yes); made in house; host or cells: E. coli BL21 (DE3)
As to the kind of experiment: Isothermal titration calorimetry of peptide ligands with the YAP-WW1-WW2 tandem. It is filed as binding. To be noted: ITC, 25°C; for n (number of binding sites): 40 mM sodium phosphate pH 7.0 (10 mM β-mercaptoethanol for LATS2), binding model for one set of sites.

Experiment [4] concerns YAP-WW1 domain. Description: Phage ELISA of YAP-WW2-selected clones, displacement of p53BP2 from YAP-WW1. It is filed as binding, human. Particulars: YAP-WW1 compared with YAP-WW2. The procedure: The analysis of the binding preferences of the WW domains was performed by phage-display as previously described. Briefly, an N-term library in PIII was generated using a template derived from the pS2202d phagemid, containing the Erbin-PDZ domain kindly provided by Dr. Sachdev Sidhu (University of Toronto). The Erbin-PDZ sequence was removed by the introduction of four stop codons between the secretion signal and the linker required for the correct display of the library variants in the phage. A randomized sequence corresponding to a x5(L/P)PxYx5 peptide library containing the L/PPxY core motif for type 1 WW domains was subsequently introduced into the modified phagemid. The resulting library was then introduced into the SS320 strain by electroporation. The subsequent phage propagation led to 10^11 library diversity, which was isolated at 5 x 10^13 phages/ml in PBS-Tween (0.05%) buffer. The resulting library was then screened against immobilized GST-tagged YAP-WW2 domain (GST-YAP-WW2) in PBS, carrying out seven rounds of an iterative selection process. Single clones were chosen from round 3 to round 7 and tested for specific binding to the GST-YAP-WW2 by phage ELISA in a Tecan Infinite M200 instrument. […] The DNA from phages showing binding in the ELISA assay were used as PCR templates to amplify the peptide-encoding regions, which were then sequenced and analyzed.

[5] abbreviates: pH 7.0, binding model for one set of sites.
Setting [6] is: pH 7.0, model of two different sets of sites, n fixed to 1 each, first set of sites (first line).
Where [7] appears, read: pH 7.0, model of two different sets of sites, n fixed to 1 each, second set of sites (second line).
[8] abbreviates: pH 7.0, two sets of sites model, n fixed to 1, first set of sites.
Setting [9] is: pH 7.0, two sets of sites model, n fixed to 1, second set of sites.

Where two headings read alike, the source gives them in different places.

T3 sequence (P46937 165-271): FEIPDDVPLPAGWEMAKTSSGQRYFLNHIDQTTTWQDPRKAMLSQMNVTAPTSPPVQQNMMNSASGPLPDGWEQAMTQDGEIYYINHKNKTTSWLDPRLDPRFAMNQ
T1 sequence (P46937 165-209): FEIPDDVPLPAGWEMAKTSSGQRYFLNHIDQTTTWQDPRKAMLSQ
T2 sequence (P46937 228-271): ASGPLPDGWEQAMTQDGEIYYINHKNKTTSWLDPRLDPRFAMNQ

As to `CC(=O)N[C@@H](CC(N)=O)C(=O)N[C@@H](CCCNC(=N)N)C(=O)N[C@@H](CCC(N)=O)C(=O)N1CCC[C@H]1C(=O)N1CCC[C@H]1C(=O)N1CCC[C@H]1C(=O)N1CCC[C@H]1C(=O)N[C@@H](Cc1ccc(O)cc1)C(=O)N1CCC[C@H]1C(=O)N[C@@H](CC(C)C)C(=O)N[C@H](C(=O)N[C@@H](C)C(N)=O)[C@@H](C)O` [LATS1-a], the “n (number of binding sites)” value in experiment [1] stood at 0.96; in experiment [2], 1.09; in experiment [3], 2.04. Also, the Kd in experiment [1] came to 21.5 µM; in experiment [2] (read-out: Kd), 27 µM; in experiment [3] (setting [5]) it was 33.4 µM. Further, the “-T·ΔSap” value amounted to 9.63 kcal/mol in experiment [1], 12 kcal/mol in experiment [2] and 11.1 kcal/mol in experiment [3] (setting [5]). In addition, the ΔGap in experiment [1] is -6.38 kcal/mol; in experiment [2], -6.24 kcal/mol; in experiment [3] (setting [5]), -6.12 kcal/mol. In addition, the ΔHap in experiment [1] was -16 kcal/mol; in experiment [2], -18.2 kcal/mol; in experiment [3] (setting [5]), -17.2 kcal/mol.

For the molecule `CC(=O)N[C@@H](CCCNC(=N)N)C(=O)N[C@@H](Cc1ccc(O)cc1)C(=O)N[C@@H](CO)C(=O)N1CCC[C@H]1C(=O)N1CCC[C@H]1C(=O)N1CCC[C@H]1C(=O)N1CCC[C@H]1C(=O)N[C@@H](Cc1ccc(O)cc1)C(=O)N[C@@H](CO)C(=O)N[C@@H](CO)C(=O)N[C@@H](Cc1c[nH]cn1)C(=O)N[C@@H](CO)C(N)=O` [PTCH1-a], the entries for the “n (number of binding sites)” value in experiment [1] and in experiment [2] were 0.95 and 0.91, respectively. Moreover, the Kd in experiment [1] was 27.6 µM; in experiment [2] (read-out: Kd), 45.8 µM; in experiment [3] (setting [6]), 24.7 µM; in experiment [3] (setting [7]) it was 47.4 µM. The “-T·ΔSap” value worked out at 9.3 kcal/mol in experiment [1], 9.82 kcal/mol in experiment [2], 6.33 kcal/mol in experiment [3] (setting [8]) and 12.1 kcal/mol in experiment [3] (setting [9]). The ΔGap is -6.24 kcal/mol in experiment [1], -5.93 kcal/mol in experiment [2], -6.31 kcal/mol in experiment [3] (setting [8]) and -5.9 kcal/mol in experiment [3] (setting [9]). In addition, the ΔHap is -15.5 kcal/mol in experiment [1], -15.8 kcal/mol in experiment [2], -12.6 kcal/mol in experiment [3] (setting [8]) and -18 kcal/mol in experiment [3] (setting [9]).

AGRPPPPPYPGPPL: the “Interaction with the two WW domains of YAP (ELISA binding experiments)” value in experiment [4] was “seems to interact similarly with the two WW domains of YAP”.

As to Ac-EGLWPPPYRPRR-NH2 [PTCH1-b], in experiment [1], the “n (number of binding sites)” value came out at 1.09, the Kd was determined as 13.2 µM, the “-T·ΔSap” value worked out at 11.3 kcal/mol and the ΔGap is -6.67 kcal/mol. Moreover, the ΔHap in experiment [1] is -18 kcal/mol. Further, the Kd result in experiment [2] was “no interaction was detected and n.b”. Besides, in experiment [3] (setting [5]), the “-T·ΔSap” value stood at 12.6 kcal/mol, the Kd came out at 16.9 µM, the ΔGap was -6.52 kcal/mol and the ΔHap was -19.2 kcal/mol.

Ac-RRCPPPPYPKHL-NH2 [LATS2]: in experiment [1], the “n (number of binding sites)” value is 1.05, the Kd came out at 7.1 µM, the “-T·ΔSap” value was 11.9 kcal/mol and the ΔHap was -18.8 kcal/mol. For the same molecule, in experiment [2], the “n (number of binding sites)” value is given as 1.08, the “-T·ΔSap” value is 6.86 kcal/mol, the ΔGap is -6.96 kcal/mol and the ΔHap is -13.8 kcal/mol. Moreover, the Kd in experiment [2] (read-out: Kd) came out at 8.2 µM. In addition, in experiment [3], the “n (number of binding sites)” value amounted to 2.02. In addition, in experiment [3] (setting [5]), the “-T·ΔSap” value was found to be 9.56 kcal/mol, binding was put at a Kd of 9.2 µM, the ΔGap was -6.88 kcal/mol and the ΔHap is -16.4 kcal/mol.

For the molecule Ac-YQGPPPPYPKHL-NH2 [LATS1-b], the entries for the “n (number of binding sites)” value in experiment [1] and in experiment [2] were 0.91 and 0.94, respectively. For the same molecule, the Kd in experiment [1] is 3.7 µM; in experiment [2] (read-out: Kd), 33.9 µM; in experiment [3] (setting [6]), 4.8 µM; in experiment [3] (setting [7]) it was 31.9 µM. The “-T·ΔSap” value in experiment [1] came out at 9.08 kcal/mol; in experiment [2] it was 10.7 kcal/mol; in experiment [3] (setting [8]) it was 9.66 kcal/mol; in experiment [3] (setting [9]), 6.24 kcal/mol. Further, the ΔGap in experiment [1] was -7.41 kcal/mol; in experiment [2], -6.12 kcal/mol; in experiment [3] (setting [8]) it was -7.27 kcal/mol; in experiment [3] (setting [9]), -6.14 kcal/mol. The ΔHap in experiment [1] is -16.5 kcal/mol; in experiment [2], -16.8 kcal/mol; in experiment [3] (setting [8]) it was -16.9 kcal/mol; in experiment [3] (setting [9]) it was -12.4 kcal/mol.
